Reference: patent publication US8957012B2, “Gamma secretase inhibitor for treatment of herpesvirus infection” (The Trustees of the University of Pennsylvania, priority 2006, dated 2015)
Entries after “also recorded” stand apart in the source; their conditions may differ.

Key:
[1] = test system: KSHV-GFP Bac36 recombinant virus in Vero cells; type: cell-based
[2] = test system: KSHV in BCBL1 cells; type: cell-based
[3] = test system: Notch1 ICN in BCBL1 cells; assay: Western blot of ICN levels; type: cell-based; conditions: BCBL1 cells treated with inhibitor
Protocol: (§1) At 48 h post treatment, cells were harvested, fixed, and stained with propidium iodide. M2, M3, and M4 represent the G1, S, and G2/M populations of cells, respectively. M1 and M5 represent hypo- and hypernucleated cells, respectively. The percentage of cells in each different phase is indicated. Western blot analysis indicates the ICN levels in γ-secretase inhibitor-treated DG75 cells or BCBL1 cells. The relative density (RD) of ICN in each sample is also shown.
(§2) As was shown in the above Examples; a γ-secretase inhibitor can dramatically slow down proliferation of the KSHV-positive BCBL1 cell line.

[4] = test system: BCBL1 cells; assay: SCID mouse model of KSHV infected B lymphoma; conditions: listed as GSI
[5] = test system: cyclin D1 in KSHV-positive cells; assay: Western blot of cyclin D1 levels; conditions: KSHV-positive cells treated with inhibitor
[6] = test system: DG75 cells; assay: CFSE staining of mitotic activity by FACS; type: cell-based; conditions: 20 μM, 48 h, treated vs untreated
Protocol: (§3) Each cell type (100,000 cells) was cultured in RPMI 1640 with 5% BGS. At each time point, cells were stained with trypan blue and counted. The results represent three independent experiments. (B) CFSE staining showing mitosis of DG75 (left panel) and BCBL1 (right panel) cells. Five million cells were cultured in RPMI 1640 with 5% BGS and mock treated (red curves) or treated with γ-secretase inhibitor at 20 μM (blue curves). At 48 h post treatment, cells were harvested for FACS analysis to determine mitotic activity. Gray and black curves represent negative and positive controls, respectively. The negative control was non-CFSE-staining cells, and the positive control was CFSE-staining but immediately fixed cells. (C) 7AAD staining analysis of mock treated (left panel) and KSHV-infected (right panel) primary B cells. Two million primary B cells were mock treated or KSHV infected for 4 weeks and harvested for 7AAD staining. The percentages of dead and necrotic cells are shown. (D) Four-week KSHV-infected primary B cells were harvested and mock treated (left panel) or treated with γ-secretase inhibitor (right panel) for 5 days, and then cells were stained with 7AAD for FACS analysis.
(§4) As was mentioned previously, aberrant Notch signaling is highly associated with oncogenesis. […] Cells stained with CFSE followed by treatment with the γ-secretase inhibitor for 48 h were monitored by FACS.

[7] = test system: BCBL1 cells; assay: CFSE staining of mitotic activity by FACS; type: cell-based; conditions: 20 μM, 48 h, vs untreated cells
Protocol: as §3, §4

[8] = test system: KSHV-infected primary B cells; assay: 7AAD staining FACS analysis of cell death; type: cell-based; conditions: 4-week KSHV Bac36-infected primary B cells; treated 5 days; mock-treated 21.2%
[9] = test system: DG75 cells; assay: Cell proliferation, trypan blue counting; type: cell-based; conditions: KSHV-negative cells; RPMI 1640 with 5% BGS; trypan blue counts
Protocol: as §3, §4

[10] = test system: BCBL1 cells; assay: Cell proliferation, trypan blue counting; type: cell-based; conditions: KSHV-positive cells; RPMI 1640 with 5% BGS; trypan blue counts
Protocol: as §3, §4

[11] = test system: DG75 cells; assay: Cell cycle distribution, propidium iodide FACS; type: cell-based; conditions: 48 h post treatment
Protocol: as §1, §2

[12] = test system: BCBL1 cells; assay: Cell cycle distribution, propidium iodide FACS; type: cell-based; conditions: 48 h post treatment
Protocol: as §1, §2

SMILES	GFP signals in cells infected with supernatant (FACS) [1]	RTA expression (Western blot) [2]	production of infectious virions in supernatant [2]	ICN levels (Western blot) [3]	survival time of mice ([4]; SCID mice with BCBL1, 30 mg/kg daily, vs saline control)	progression of the tumor / formation of tumor and ascites ([4]; SCID mice, 10 million BCBL1 cells i.p., 30 mg/kg i.p. daily, vs saline, 30 mg/kg)	histopathology of BCBL1 tumor cells ([4]; tumor tissue of treated mice, vs saline mock treated)	cyclin D1 levels (Western blot) [5]	mitotic activity (CFSE) [6]	mitotic activity (CFSE) [7]	cells that had undergone death (7AAD positive) [8]	proliferation of DG75 cells [9]	proliferation of BCBL1 cells [10]	changes in G1 phase of the cell cycle [11]	more cells arrested at G1 phase than mock-treated [12]
CCCCCCCCCCCCCC(=O)O[C@@H]1[C@@H](C)[C@@]2(O)[C@@H](C=C(CO)C[C@]3(O)C(=O)C(C)=C[C@@H]23)[C@@H]2C(C)(C)[C@]12OC(C)=O [TPA, tetradecanoyl phorbol acetate]	GFP signals were detected	strongly expressed	infectious virions were produced												
C[C@H](NC(=O)Cc1cc(F)cc(F)c1)C(=O)N[C@H](C(=O)OC(C)(C)C)c1ccccc1 [γ-secretase inhibitor, N—[N-(3,5-difluorophenacetyl-L-alanyl)]-S-phenylglycine t-butyl ester]				decreased	significantly prolong; also recorded: significantly increase	greatly slow down; also recorded: greatly delayed	necrosis and apoptosis; also recorded: a lot of necrotic and apoptotic cells	depressed	relatively unchanged	dramatically decreased	about 45.4%	minimally affected	dramatically slowed	no significant changes	approximately 30%
